Reference: article PMC7083851, “Extended pharmacodynamic responses observed upon PROTAC-mediated degradation of RIPK2” (Communications Biology, 2020)
Several values for one entry are separate records, joined by “and”; a condition that tells them apart may be missing. Equal values may be shown once.

Tests used:
[1] = ChromLogD7.4 high-throughput chromatographic lipophilicity; assay type: physicochemical
[2] = molecular target: T1, RIPK2 (Homo sapiens, UniProt O43353); experiment: RIPK2 degradation in human PBMCs (immunoassay); assay type: cell-based; design: endogenous in cells; host or cells: primary human PBMCs from leukodepletion filters (NHSBT); conditions: 24 h
T1 sequence (O43353 whole entry): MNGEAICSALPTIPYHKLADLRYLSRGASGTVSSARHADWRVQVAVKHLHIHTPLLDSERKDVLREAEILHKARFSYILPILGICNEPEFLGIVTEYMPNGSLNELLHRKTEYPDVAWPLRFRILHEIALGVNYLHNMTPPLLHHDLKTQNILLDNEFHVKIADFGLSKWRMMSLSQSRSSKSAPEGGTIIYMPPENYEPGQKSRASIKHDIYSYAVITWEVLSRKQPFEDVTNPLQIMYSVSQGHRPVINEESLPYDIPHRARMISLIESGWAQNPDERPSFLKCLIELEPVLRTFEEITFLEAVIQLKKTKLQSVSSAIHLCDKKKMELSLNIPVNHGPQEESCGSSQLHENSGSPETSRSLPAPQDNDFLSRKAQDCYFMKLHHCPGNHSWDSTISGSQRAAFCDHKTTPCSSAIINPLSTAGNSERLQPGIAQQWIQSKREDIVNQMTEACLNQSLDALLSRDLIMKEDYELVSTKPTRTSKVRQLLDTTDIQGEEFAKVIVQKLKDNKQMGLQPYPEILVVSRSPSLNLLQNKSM
Description: PBMCs were isolated from leukodepletion filter from platelet aphaeresis supplied by National Health System Blood and Transplant—NHSBT Apheresed at NHBST.
(§1) Before treatment with compound or vehicle, THP1 cells, human and rat PBMCs were counted using Vi-Cell cell counter (Invitrogen) and adjusted to a final cell density of […] using complete growth medium. Cells or whole blood were treated with vehicle (0.1% DMSO) or fixed concentrations of compound up to 1 μM in half log unit increments and incubated for the time period indicated in the figure.
Where the assessment of cytokines was performed, L18-MDP was added to the cell culture media (1 μg/ml) or to the rat blood samples (100 ng/ml) and samples were incubated for up to 4 h. […] Samples were them spun down at 1000 g and the cell culture supernatant, plasma or serum were collected for cytokines assessment, while cell pellets were used for RIPK2 and/or cIAP1, cIAP2, and XIAP levels analysis via immunoblotting.
Simple Western immunoassay: Cell lysates were mixed with 5× concentrated master mix (Protein Simple) and denatured at 95 °C on a heat block for 5 min together with the provided ladder (Protein Simple). Antibodies were diluted in the provided buffer as following: anti-RIPK2 (1:10 or 1:50), anti-cIAP1(1:10), anti-cIAP2 (1:10), anti-XIAP (1:10), mouse anti-β-actin (Abcam - 1:1000), rabbit anti-β-actin (Abcam - 1:50) and anti-vinculin (1:100). All reagents (blocking buffer, primary and secondary antibodies, streptavadin, luminol/peroxide, separation matrix, stacking matrix and water) were added to the Protein Simple plate containing the ladder and lysates and the plate was placed in a Protein Simple Western instrument and the Simple Western default size assay protocol was used. […] The area under the peak values obtained for RIPK2, cIAP1, cIAP2 or XIAP were normalized relative to the control protein values.
In vitro experimental data were analyzed using a 4-parameter logistic equation in GraphPad Prism 5.0.4. to generate an estimate of the half-maximal concentration and maximal degradation, DC50 and Dmax value respectively, for concentration-degradation relationships. Cytokine levels were analyzed in a similar manner to yield IC50 and Imax values. […] Where analysis to a sigmoidal relationship was not possible, the data points are shown as mean ± s.e.m.

[3] = tested on: L18-MDP-stimulated TNFα release; experiment: L18-MDP-stimulated TNFα release in rat whole blood; assay type: cell-based; conditions: inhibition of L18-MDP-stimulated TNFα release
Description: as §1
Where the assessment of cytokines was performed, L18-MDP was added to the cell culture media (1 μg/ml) or to the rat blood samples (100 ng/ml) and samples were incubated for up to 4 h. […]
Cytokine measurement assay: Cytokine levels were measured in rat plasma or rat PBMCs cell culture supernatants using rat V-Plex TNFα, in human plasma or human PBMCs cell culture supernatants with either TNFα tissue culture or 7-plex kit. Rat serum and tissues samples from the in vivo L18-MDP acute inflammation model were analyzed using the rat TNFα, Il-6 and IL-8 U-Plex kits. […] Levels of cytokines spontaneously released from human colon biopsies cell culture supernatants were measured using Human IL-1 beta/IL-1F2 DuoSet ELISA (Bio-techne), Human IL-6 ELISA (Immunotools) and Human TNF-alpha DuoSet ELISA (Bio-techne). […] The MSD plates were analyzed using the MSD sector imager 6000 plate reader and cytokines concentration (pg/ml) was obtained by using the MSD DISCOVERY WORKBENCH software version 4.0.12.1 […]

[4] = molecular target: T1, RIPK2; experiment: RIPK2 fluorescence polarisation binding assay
[5] = Hepatocyte CLint, rat; assay type: in vitro ADME; conditions: rat liver hepatocytes
Description: Metabolic stability was performed at Cyprotex (UK). Pooled liver microsomes / cryopreserved pooled hepatocytes were purchased from a commercial supplier (BD Biosciences or Corning/InVitro Technologies).
The final incubation volume was 500 µL. An appropriate vehicle control was used. Each compound was incubated for 0, 5, 10, 20, 40, and 60 min. The control (vehicle) was incubated for 60 min.
All incubations were terminated by transferring 50 μL of incubate to 100 μL of acetonitrile containing internal standard at the appropriate time points. The termination plates were centrifuged at 2500 rpm for 20–30min at 4 °C to precipitate the protein. Following protein precipitation, samples were analysed using quantitative LC-MS/MS.

[6] = tested on: L18-MDP-induced cytokine release; experiment: In vivo L18-MDP acute inflammation model, spleen cytokines; design: species or system rat; cytokine level (fig 6d) / cytokine level (fig 6e) / cytokine level (fig 6f): unit not given here; conditions: for cytokine level (fig 6e) / cytokine level (fig 6f) / cytokine level (fig 6d): spleen, individual rats, beside L18-MDP control
Description: In vivo L18-MDP administration to rodents results in an acute inflammatory response characterised by the rapid production of inflammatory cytokines. […]. […]. Blood concentrations of 6 and 7 tracked closely and dropped below the LLQ after 24 h.
. Cytokine levels were determined in serum generated from the terminal blood samples and in tissue lysates as detailed below.
(§2) Cytokine measurement assay: Cytokine levels were measured in rat plasma or rat PBMCs cell culture supernatants using rat V-Plex TNFα, in human plasma or human PBMCs cell culture supernatants with either TNFα tissue culture or 7-plex kit. Rat serum and tissues samples from the in vivo L18-MDP acute inflammation model were analyzed using the rat TNFα, Il-6 and IL-8 U-Plex kits. All kits provided by Meso Scale Discovery (MSD). Levels of cytokines spontaneously released from human colon biopsies cell culture supernatants were measured using Human IL-1 beta/IL-1F2 DuoSet ELISA (Bio-techne), Human IL-6 ELISA (Immunotools) and Human TNF-alpha DuoSet ELISA (Bio-techne). All samples were processed accordingly to the manufacturer’s instructions. The MSD plates were analyzed using the MSD sector imager 6000 plate reader and cytokines concentration (pg/ml) was obtained by using the MSD DISCOVERY WORKBENCH software version 4.0.12.1
For in vivo studies, RIPK2:tubulin ratios and cytokine levels from each individual experiment were analysed either using a One-way ANOVA with Dunnet’s post-test or a two way ANOVA using GraphPad Prism 5.0.4 to determine statistical significance with 95% confidence levels.

[7] = tested on: L18-MDP-induced cytokine release; experiment: In vivo L18-MDP acute inflammation model, distal colon cytokines; design: species or system rat; key to cytokine level (fig 6g) / cytokine level (fig 6h) / cytokine level (fig 6i): cytokine concentration in pg/ml (MSD U-Plex); conditions: for cytokine level (fig 6g) / cytokine level (fig 6i) / cytokine level (fig 6h): distal colon, individual rats, beside L18-MDP control
Description: Cytokine levels were determined in serum generated from the terminal blood samples and in tissue lysates as detailed below.
as §2

[8] = rat, 0.3 mg/kg SC, intravenous L18-MDP challenge

CN[C@@H](C)C(=O)N[C@H](C(=O)N1CCC[C@H]1c1nc(C(=O)c2ccc(F)cc2)cs1)C1CCN(C(=O)c2cnc(N3CCN(CCOc4cc5ncnc(Nc6n[nH]c(C)c6C)c5cc4S(=O)(=O)C(C)(C)C)CC3)nc2)CC1 [PROTAC 4]
ChromLogD7.4 [1]: 4.2
hPBMC pDC50 ± SEM, 24 h (n = 3) ([2]; RIPK2 degradation): 7.9 ± 0.2
hPBMC Dmax ± SEM, 24 h (n = 3) ([2]; maximal RIPK2 degradation): 69.2 ± 11.5%
rWB MDP pIC50 ± SEM (n) [3]: 7.7 ± 0.16 (4)
RIPK2 FP pIC50 ± SEM (n) [4]: 6.6 ± 0.02 (8)
clearance in hepatocytes [5]: < 0.80 mL/min/g liver

CN[C@@H](C)C(=O)N[C@H](C(=O)N1C[C@@H](NC(=O)c2cnc(N3CCN(CCCOc4cc5ncnc(Nc6n[nH]c(C)c6C)c5cc4S(=O)(=O)C(C)(C)C)CC3)cn2)C[C@H]1C(=O)Nc1c(F)cccc1F)C(C)(C)C [PROTAC 6]
inhibition of TNFα and IL-8 in spleen, in words [6, 8]: short-lived and returned to basal levels by the third day post-dose
cytokine level (fig 6e) ([6]; time 6 h): 14.13 and 34.14 and 14.02 and 19.73 and 14.97
cytokine level (fig 6f) ([6]; time 6 h): 4.45 and 4.35 and 4.34 and 3.21 and 3.53
cytokine level (fig 6d) ([6]; time 6 h): 2.77 (2×) and 3.58 and 3.26 and 3.28
cytokine level (fig 6e) ([6]; time 24 h): 45.7 and 38.46 and 58.3 and 40.91 and 52.98
cytokine level (fig 6f) ([6]; time 24 h): 4.32 and 2.78 and 5.01 and 2.54 and 9.72
cytokine level (fig 6d) ([6]; time 24 h): 4.43 and 2.62 and 4.18 and 4.64 and 5.01
cytokine level (fig 6e) ([6]; time 72 h): 111.22 and 59.85 and 73.1 and 99 and 52.1
cytokine level (fig 6f) ([6]; time 72 h): 75.27 and 51.34 and 57.62 and 94.65 and 61.7
cytokine level (fig 6d) ([6]; time 72 h): 45 and 42.87 and 29.6 and 47.75 and 33.69
cytokine level (fig 6e) ([6]; time 240 h): 97.65 and 76.46 and 96.01 and 80.21 and 59.48
cytokine level (fig 6f) ([6]; time 240 h): 72.27 and 99.15 and 93.27 and 64.45 and 48.45
cytokine level (fig 6d) ([6]; time 240 h): 65.15 and 73.34 and 58.46 and 1.72 and 47.46
cytokine level (fig 6e) ([6]; time 408 h): 146.67 and 133.23 and 180.63 and 211.01 and 68.17
cytokine level (fig 6f) ([6]; time 408 h): 79.92 and 69.55 and 103.81 and 98.05 and 47.92
cytokine level (fig 6d) ([6]; time 408 h): 41.62 and 64.64 and 76.25 and 77.33 and 37.06
cytokine level (fig 6g) ([7]; time 6 h): 8.69 and 8.02 and 5.35 and 6.46 and 7.8
cytokine level (fig 6i) ([7]; time 6 h): 31.46 and 23.18 and 30.08 and 19.04 and 32.01
cytokine level (fig 6h) ([7]; time 6 h): 3.67 and 4.23 and 2.54 and 4.43 and 8.37
cytokine level (fig 6g) ([7]; time 24 h): 4.03 and 4.53 and 7.05 and 7.3
cytokine level (fig 6i) ([7]; time 24 h): 16.22 and 17.82 and 19.15 and 9.84 and 7.71
cytokine level (fig 6h) ([7]; time 24 h): 8.38 and 32.32 and 14.19
cytokine level (fig 6g) ([7]; time 72 h): 28.89 and 34.42 and 15.25 and 46.36 and 44.94
cytokine level (fig 6i) ([7]; time 72 h): 33.56 and 43.62 and 27.96 and 81.66 and 38.4
cytokine level (fig 6h) ([7]; time 72 h): 48.27 and 55.56 and 29.21 and 61.98 and 48.03
cytokine level (fig 6g) ([7]; time 240 h): 191.84 and 104.55 and 3.3 and 94.35
cytokine level (fig 6i) ([7]; time 240 h): 85.43 and 111.93 and 35.63 and 31.07
cytokine level (fig 6h) ([7]; time 240 h): 84.17 and 74.27 and 51.45 and 69.43
cytokine level (fig 6g) ([7]; time 408 h): 87.06 and 148.63 and 32.92 and 94.97 and 44.56
cytokine level (fig 6i) ([7]; time 408 h): 82.16 and 113.16 and 73.99 and 122.46 and 42.47
cytokine level (fig 6h) ([7]; time 408 h): 89.41 and 138.46 and 73.92 and 116.87 and 57.61
release of TNFα and IL-8 in distal colon, in words [7, 8]: significantly inhibited for up to six days post-dose
